Assay [1] concerns T1, S. cervi PFK (phosphofructokinase).
T1 construct: native enzyme purified to electrophoretic homogeneity from adult female worms (from buffalo peritoneal folds); subunit mass 90 kDa
Put plainly: coupled assay (aldolase/TPI/GDH, NADH oxidation at […] nm), Lineweaver-Burk. Format: biochemical, Setaria cervi. Particulars: 50 and 100 μM ATP, 3.3 mM Mg2+, pH 8.0.

Assay [2] has as its target T1, S. cervi PFK (phosphofructokinase). Described as above. In kind it is biochemical, Setaria cervi. Particulars: competitive vs F-6-P, 0.1 mM ATP, 3.3 mM Mg2+, Tris-HCl pH 8.0.

The source of these data is article PMC3173978, “Kinetic Characterisation of Phosphofructokinase Purified from Setaria cervi: A Bovine Filarial Parasite” (Enzyme Research, 2011).

A word on the Km: it is the substrate concentration at which the rate is half of its maximum. Take `O=P(O)(O)OC[C@H]1OC(O)(CO)[C@@H](O)[C@@H]1O` (stereo partly drawn) [F-6-P, D-fructose-6-phosphate]: in assay [1], the Michaelis constant (Km) came out at 1050 µM.

One may read the Ki as a dissociation constant, usually derived from enzyme kinetics or from competition with a known ligand. A higher Ki goes with a looser hold on the target. In turn, `O=P(O)(O)OC[C@H]1OC(O)(COP(=O)(O)O)[C@@H](O)[C@@H]1O` (stereo partly drawn) [FDP, D-fructose-1,6-diphosphate] showed a Ki in assay [2] (aldolase in coupling system acts on FDP) of 0.18 µM. That is a sub-micromolar value. `C=C(OP(=O)(O)O)C(=O)O` [PEP, phosphoenolpyruvate] gave a Ki in assay [2] of 800 µM.
